Reference: PubChem BioAssay (NCI)
Where “and” joins values, the source holds several entries; their conditions need not be identical. Identical values can stand only once.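 48-hour exposure; five concentrations; linearly interpolated endpoints. GI50: concentration for 50% inhibition of growth. Definition used: TGI = concentration required for complete inhibition of growth.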

Tests used:
Experiment in all cases: growth of human tumour cells (NCI), 48 h
[1] = test system: HS 578T breast
[2] = test system: IGROV1 ovarian
[3] = test system: LOX IMVI melanoma
[4] = test system: MDA-MB-231 breast
[5] = test system: RXF 393 renal
[6] = test system: SK-MEL-28 melanoma
[7] = test system: SNB-19 CNS
[8] = test system: U251 CNS
[9] = test system: UO-31 renal
[10] = test system: EKVX NSCLC

Row | Compound | GI50 [1] [µM] | TGI [1] [µM] | GI50 [2] [µM] | TGI [2] [µM] | GI50 [3] [µM] | TGI [3] | GI50 [4] [µM] | TGI [4] [µM] | GI50 [5] [µM] | TGI [5] | GI50 [6] [µM] | TGI [6] | GI50 [7] | TGI [7] [µM] | GI50 [8] [µM] | TGI [8] | GI50 [9] | TGI [9] | TGI [10] [µM] | GI50 [10] [µM]
1 | Cc1cc(-c2ncc(CC(=O)Nc3ccc(-c4cnccn4)cn3)cc2C)ccn1 | 26 | > 100 | 30.5 | > 100 | 68.7 | > 100 µM | 55.7 | > 100 | 42.2 | > 100 µM | 28.2 | > 100 µM | 34.6 µM | > 100 | 24.6 | > 100 µM | 12.7 µM | > 100 µM | – | –
2 | CC(=O)n1c(COS(C)(=O)=O)nc2ccccc21 | – | > 100 | – | > 100 | – | > 100 µM | – | > 100 | – | > 100 µM | – | > 100 µM | – | > 100 | – | > 100 µM | – | > 100 µM | > 100 | –
3 | COC(=O)N[C@H]1CCc2c(Br)c(OC)c(OC)c(OC)c2-c2ccc(SC)c(=O)cc21 | < 0.01 | > 52.1 | < 0.01 | > 39.5 | < 0.01 | 12 µM | < 0.01 | 14 | – | – | 6.99 | 25.1 µM | < 0.01 µM | > 49.7 | < 0.01 | 15 µM | < 0.0281 µM | 19 µM | > 85.4 | < 0.01
4 | CN1CCN(CN2C(=O)C3C4C=CC(C3C2=O)C2C3C(=O)N(CN5CCN(C)CC5)C(=O)C3C42)CC1 (stereo unspecified) | – | > 100 | – | > 100 | – | 35.5 µM and 37.4 µM and 33.8 µM | – | 56.8 | – | 41.4 µM and 34.7 µM and 36.2 µM | – | 49.3 µM and > 61.8 µM and 35.3 µM | 31.7 µM and 53.2 µM and 76.9 µM | > 100 | – | 38.3 µM and 37.2 µM and 33 µM | – | 76.8 µM and > 67.8 µM and > 100 µM | > 100 | > 100
5 | COc1ccc2c(c1)[nH]c(=O)c1c3cc(C)c(C)cc3cn21 | < 0.01 | – | < 0.0188 | 0.215 | < 0.014 | 1.66 µM | 0.0291 | 1.53 | < 0.01 | 1.22 µM | < 0.01 | 1.91 µM | < 0.0226 µM | 4.66 | < 0.01 | 1.2 µM | < 0.0119 µM | 1.72 µM | 4.67 | 0.0563
6 | O=C(CCCCCCSc1nc(-c2ccccc2)cc(-c2ccc(Cl)cc2)n1)NO | 2.76 | 20.1 | 1.24 | 6.5 | 2.06 | 4.66 µM | 2.65 | 8.96 | 1.57 | 3.89 µM | 2.94 | 12.1 µM | 2.63 µM | 11.2 | 1.59 | 4.08 µM | 0.905 µM | 2.65 µM | 14.3 | 3.7
7 | COc1ccc(N=C2CSc3nnc(-c4cc(F)c(Cl)cc4Cl)n3N2)cc1 | 1.5 | 9 | 0.187 | 0.595 | 0.897 | 11.1 µM | 1.41 | 12.8 | – | – | 2.38 | 21.4 µM | 0.776 µM | 18.9 | 0.497 | 10.8 µM | – | – | 41.7 | 4.84
8 | O=c1oc2cc(OS(=O)(=O)c3ccc(F)cc3)ccc2c2c1CCCCC2 | 55.2 | > 100 | > 100 | > 100 | > 100 | > 100 µM | > 100 | > 100 | – | – | > 100 | > 100 µM | > 100 µM | > 100 | > 100 | > 100 µM | > 100 µM | > 100 µM | – | –
9 | N=C1C(c2nc(-c3ccc(Br)cc3)cs2)=C(O)CN1Cc1cccnc1 | – | 2.86 | – | – | 12 | 29.4 µM | 15.9 | 43.5 | 7.98 | 31.3 µM | 15.7 | 51.7 µM | 40.1 µM | > 100 | 22.1 | > 100 µM | 19.7 µM | > 100 µM | > 100 | 56.6
10 | CC(=O)Nc1ccc2c(c1)c(C1=C(c3cn(C)c4ccccc34)C(=O)NC1=O)cn2C | 0.596 | > 6.79 | 16.4 | > 25 | 1.63 | > 25 µM | 5 | > 25 | 0.608 | 2.68 µM | 3.62 | > 25 µM | > 18.2 µM | > 25 | 1.16 | > 25 µM | 1.16 µM | > 25 µM | – | –
11 | N#Cc1cn(C2OC(CO)C(O)C2O)c2ncnc(N)c12 (stereo unspecified) | – | 1.33 | 0.0266 | – | < 0.01 | – | – | > 100 | 0.0161 | 0.0958 µM and 0.0708 µM | 0.0329 | – | – | – | 0.0276 | – | 0.0658 µM and 0.0459 µM and 0.0271 µM | 0.665 µM and 0.819 µM and 1.98 µM | – | –
12 | C=C1C(=O)O[C@H]2[C@H]1CC/C(Cn1cc(CNC(=O)Cc3cn(C(=O)c4ccc(Cl)cc4)c4ccc(OC)cc34)nn1)=C\CC[C@@]1(C)O[C@@H]21 | 2.61 | 6.78 | 1.71 | 3.32 | – | – | 1.58 | 3.12 | 1.25 | 2.59 µM | 1.62 | 3.07 µM | 2.14 µM | 4.77 | 1.89 | 3.55 µM | 1.53 µM | 3.05 µM | 7.33 | 2.29
13 | COc1ccc(Cl)cc1Nc1nc(C(F)(F)F)ccc1C(=O)N/N=C/c1c(Cl)cccc1Cl | 20.2 | > 100 | – | – | 5.14 | > 100 µM | 14.5 | > 100 | 17.9 | 58.8 µM | > 100 | > 100 µM | 11.4 µM | > 100 | 4.97 | > 100 µM | – | – | – | –
14 | CN(C)c1cccc2c(S(=O)(=O)N[C@H]3CC[C@H]4[C@@H]5CCc6cc(O)ccc6[C@H]5CC[C@]34C)cccc12 | 2.86 | 11.3 | 3.45 | 16.2 | – | – | 1.75 | 4.41 | 2.02 | 4.34 µM | 2.2 | 5.89 µM | 3.43 µM | > 100 | 2.94 | 10.4 µM | 2.02 µM | 7.51 µM | – | –
15 | COc1cc([C@H]2c3cc4c(cc3O[C@@]3(O)COC(=O)[C@@H]23)OCO4)cc(OC)c1OC | – | > 100 | – | > 100 | – | > 100 µM | – | > 100 | – | – | – | > 100 µM | – | > 100 | – | > 100 µM | – | > 100 µM | > 100 | –
